pIC50: −log10 of the molar value.
Each compound was assayed on P. falciparum 3D7 growth, pLDH absorbance (assay: blood-stage malaria parasite growth potency – strain 3D7, dose response (AID 2305)).

Row | Structure (SMILES) | pIC50
1 | Cc1nc2nc(N)nc(N)c2c(C)c1Cc1cccc(C(F)(F)F)c1 | 5.89
2 | S=C(NCCc1ccc(Cl)cc1)N1CCC(CN2CCC(c3c[nH]c4ccccc34)CC2)CC1 | 6.00
3 | CC(=O)Nc1ncc(C(=O)Nc2cccc(-c3ccc(-c4nc5c(C)cccc5[nH]4)cc3)c2)s1 | 6.19
4 | Clc1ccc(-c2cc(-c3csc(Nc4ccncc4)n3)on2)cc1 | 6.89
5 | C[C@@H]1CN(c2cnn(C/C=C/c3ccc(NC(=O)c4ccc5nonc5c4)cc3)c(=O)c2Cl)C[C@H](C)N1 | 6.10
6 | CC1CN(CC(O)Cn2c3ccc(Br)cc3c3cc(Br)ccc32)CC(C)O1 (stereo not drawn) | 6.11
7 | Cc1cc(NCCC(=O)Nc2ccccc2)nc(NCc2ccccc2C)n1 | 6.18
8 | c1cn(-c2ccc(CNc3nccc(Nc4ccc(OCCN5CCOCC5)cc4)n3)cc2)cn1 | 6.06
9 | CCOc1ccc2c(NN=Cc3cccc(F)c3)cc(C)nc2c1 | 6.15
10 | O=C(/C=C/c1ccccc1O)NCCCCCN1CCC(c2c[nH]c3ccccc23)CC1 | 6.08
11 | CC(C)C[C@H](NC(=O)c1cc2ccccc2s1)C(=O)N[C@H]1CCN(Cc2ccc(OCCN3CCNCC3)c3ccccc23)C1 | 5.85
12 | Cc1ccccc1OCC(O)CNC1CCC(NCC(O)COc2ccccc2C)CC1 (stereo not drawn) | 5.92
13 | CCC1CN2CCc3cc(OC)c(OC)cc3C2CC1CC1NCCc2c1[nH]c1ccc(O)cc21 (stereo not drawn) | 7.00
14 | Nc1nc(N)c2c(Sc3ccccc3)cccc2n1 | 6.19
15 | CC(=O)c1cc(N2CCCC2)ccc1N | 7.70
16 | COc1ccc(-c2cccc(NC(=O)c3ccc(Cl)cc3)c2)cc1CN1CCCC1 | 6.11
17 | c1ccc2c(CNc3nc(NCC4CCCCC4)nc4nc[nH]c34)cccc2c1 | 6.05
18 | CON=C1CCC(Cn2ccnc2)(c2ccc(Cl)cc2Cl)CC1 (stereo not drawn) | 6.06
19 | Cc1cccc2[nH]c(-c3cccc(-c4ccc(NC(=O)Cc5ccccn5)cc4)c3)nc12 | 6.10

Row | Structure (SMILES) | pIC50
20 | CN1CCN(c2ccc3nc(-c4ccc(Cc5cc(Cl)ccc5OCc5ccccc5)o4)[nH]c3c2)CC1 | 6.09
21 | COc1ccc(C(=O)N2CCC(CN3CCOC(c4ccccc4)(c4ccccc4)C3)CC2)cc1 | 6.77
22 | Oc1ccc2[nH]c(-c3cccc(F)c3)nc2c1CN1CCC(O)(c2ccccc2)CC1 | 6.00
23 | O=C(C=Cc1ccc(Cl)c(Cl)c1)NCCCCCN1CCC(CCCNS(=O)(=O)c2ccc(Br)cc2)CC1 | 5.95
24 | COc1cc(Cc2cnc(N)nc2N)cc(OCCCCCCN)c1OC | 6.72
25 | O=C(N[C@@H](Cc1ccccc1)C(=O)NCc1cccc2ccccc12)c1ccc(O)c(-c2ccc(Cl)c(Cl)c2)c1 | 6.62
26 | CCOC(=O)c1cccc(NC(=O)Nc2cccc(-c3ncc(OCCCN)c4c3nc(-c3nonc3N)n4CC)c2)c1 | 6.05
27 | CC(C)CNCc1cccc(-c2cccc(CN(CCN(C)C)C(=O)NCCc3ccccc3)c2)c1 | 6.16
28 | Fc1ccc([C@H]2N=C(SCCSC3=N[C@H](c4ccc(F)cc4)[C@H](c4ccc(F)cc4)N3)N[C@H]2c2ccc(F)cc2)cc1 | 6.04
29 | Cc1[nH]c(C)c(-c2ccc(Oc3ccc(Cl)cc3)c(Cl)c2)c(=O)c1Br | 6.31
30 | COc1cc(NCCCCCNc2cc(Cl)nc3ccccc23)nc2ccccc12 | 6.11
31 | CN(CCCCCNC(=O)/C=C/c1ccc(Cl)c(Cl)c1)CCCCc1c[nH]c2ccccc12 | 5.97
32 | Cc1cc(-c2ccc3c(c2)CCN(CCCOc2ccc4c(c2)CCN4C(=O)/C=C/c2ccccc2Cl)CC3)no1 | 5.91
33 | CS(=O)(=O)c1ccc(CNCc2cccc(-c3ccc(-c4nc5ccc(C(F)(F)F)cc5[nH]4)cc3)c2)cc1 | 6.29
34 | CN(C(=O)OCc1ccccc1)C1CCC(CCN2CCC3(CC2)C(=O)NCN3c2cccc(C(F)(F)F)c2)(c2ccccc2)CC1 (stereo not drawn) | 5.93
35 | CS(=O)(=O)Cc1ccc(Nc2nccc(NC3CCN(c4nccc(C(F)(F)F)n4)CC3)n2)cc1 | 6.05
36 | CC1CCC2(CC1)N=C(N)N=C(N)N2OCc1ccc(Br)c2ccccc12 (stereo not drawn) | 6.66
37 | CC(C)(C)NC(=O)COC(=O)c1c2c(nc3ccccc13)C(=Cc1ccc3c(c1)OCO3)CCC2 | 6.13
38 | O=C(/C=C/c1ccc(Cl)c(Cl)c1)NCCCCCN1CCC(NC(=O)Nc2ccc(Cl)c(Cl)c2)CC1 | 6.05

— PubChem BioAssay AID2305 (GlaxoSmithKline (GSK), 2010)
